Test results as given in patent publication US10499642B2, “Isoxazoline-substituted benzamides and analogues as insecticides” (SYNGENTA PARTICIPATIONS AG, priority 2015, dated 2019).
Like-named read-outs stand apart in the source and are kept apart here.

What was measured:
Type in all cases: in vivo
Spodoptera littoralis = Spodoptera littoralis (Egyptian cotton leaf worm) cotton leaf disc test; details: foliar, 72 h, read-out: control (at least one of mortality, anti-feedant effect, and growth inhibition)
Procedure: Spodoptera littoralis (Egyptian Cotton Leaf Worm)
Cotton leaf discs were placed on agar in 24-well microtiter plates and sprayed with aqueous test solutions prepared from 10′000 ppm DMSO stock solutions. After drying the leaf discs were infested with five L1 larvae. The samples were assessed for mortality, anti-feedant effect, and growth inhibition in comparison to untreated samples 3 days after infestation. Control of Spodoptera littoralis by a test sample is when at least one of mortality, anti-feedant effect, and growth inhibition is higher than the untreated sample.

Plutella xylostella = Plutella xylostella (diamond back moth) artificial diet test; details: 120 h, read-out: effect in at least one of the two categories (mortality or growth inhibition)
Procedure: Plutella xylostella (Diamond Back Moth):
(§1) 24-well microtiter plates with artificial diet were treated with aqueous test solutions prepared from 10′000 ppm DMSO stock solutions by pipetting. After drying, the plates were infested with L2 larvae (10 to 15 per well). The samples were assessed for mortality and growth inhibition in comparison to untreated samples 5 days after infestation. The following compounds gave an effect of at least 80% in at least one of the two categories (mortality or growth inhibition) at an application rate of 200 ppm: […]

Diabrotica Balteata = assay: Diabrotica balteata (corn root worm) maize sprout test; details: 96 h, read-out: effect in at least one of the two categories (mortality or growth inhibition)
Procedure: Diabrotica Balteata, (Corn Root Worm)
as §1, with “Maize sprouts, placed on an agar layer in 24-well” for “24-well”, “plates” for “plates with artificial diet”, “spraying.” for “pipetting.”, “(6” for “(10”, “10” for “15”, “4” for “5”

Thrips tabaci = Thrips tabaci (onion thrips) sunflower leaf disc test; details: foliar, 144 h
Procedure: Thrips tabaci (Onion Thrips):
(§2) Sunflower leaf discs were placed on agar in 24-well microtiter plates and sprayed with aqueous test solutions prepared from 10′000 ppm DMSO stock solutions. After drying the leaf discs were infested with a thrips population of mixed ages. The samples were assessed for mortality 6 days after infestation.

Tetranychus urticae = Tetranychus urticae (two-spotted spider mite) bean leaf disc test; details: foliar, 192 h
Procedure: Tetranychus urticae (Two-Spotted Spider Mite):
as §2, with “Bean” for “Sunflower”, “discs” for “discs were placed”, “were” for “and”, “mite” for “thrips”, “on mixed population (mobile stages) 8” for “6”

[1] = application rate 200 ppm, cotton leaf discs, L1 larvae, 3 days after infestation
[2] = application rate 200 ppm, artificial diet, L2 larvae, 5 days after infestation
[3] = application rate 200 ppm, maize sprouts, L2 larvae, 4 days after infestation
[4] = application rate 200 ppm, sunflower leaf discs, population of mixed ages, 6 days after infestation, read-out: mortality
[5] = application rate 200 ppm, bean leaf discs, mixed population (mobile stages), 8 days after infestation, read-out: mortality

CCS(=O)(=O)C1=NOC(NC(=O)c2ccc(C3=NO[C@@](c4cc(Cl)c(Cl)c(Cl)c4)(C(F)(F)F)C3)cc2C)C1 (some centres unmarked) [Compound A053]
≥ 80%: percent control (mortality, anti-feedant effect or growth inhibition) at 200 ppm (Spodoptera littoralis) | percent effect (mortality or growth inhibition) at 200 ppm (Plutella xylostella) | percent effect (mortality or growth inhibition) at 200 ppm (Diabrotica Balteata) | mortality at 200 ppm (Thrips tabaci) | mortality at 200 ppm (Tetranychus urticae)

COC1=NO[C@H](N(C(=O)OC(C)(C)C)C(=O)c2ccc(C3=NO[C@@](c4cc(Cl)c(Cl)c(Cl)c4)(C(F)(F)F)C3)cc2C)C1 (single isomer, unassigned) [Compound A152]
≥ 80%: percent control (mortality, anti-feedant effect or growth inhibition) at 200 ppm (Spodoptera littoralis) | percent effect (mortality or growth inhibition) at 200 ppm (Plutella xylostella) | percent effect (mortality or growth inhibition) at 200 ppm (Diabrotica Balteata) | mortality at 200 ppm (Thrips tabaci) | mortality at 200 ppm (Tetranychus urticae)

O=C(NC1CC(Br)=NO1)c1ccc(C2=NO[C@@](c3cc(Cl)cc(Cl)c3)(C(F)(F)F)C2)cc1Cl (some centres unmarked) [Compound A093]
≥ 80%: percent control (mortality, anti-feedant effect or growth inhibition) at 200 ppm (Spodoptera littoralis) | percent effect (mortality or growth inhibition) at 200 ppm (Plutella xylostella) | percent effect (mortality or growth inhibition) at 200 ppm (Diabrotica Balteata) | mortality at 200 ppm (Thrips tabaci) | mortality at 200 ppm (Tetranychus urticae)

CCOC1=NOC(N(C(=O)c2ccc(C3=NO[C@@](c4cc(Cl)c(F)c(Cl)c4)(C(F)(F)F)C3)cc2C)[C@H](C)c2ccc(OC)cc2)C1 (some centres unmarked) [Compound A131]
≥ 80%: percent control (mortality, anti-feedant effect or growth inhibition) at 200 ppm (Spodoptera littoralis; [1]) | percent effect (mortality or growth inhibition) at 200 ppm (Plutella xylostella; [2]) | percent effect (mortality or growth inhibition) at 200 ppm (Diabrotica Balteata; [3]) | mortality at 200 ppm (Thrips tabaci; [4]) | mortality at 200 ppm (Tetranychus urticae; [5])

COC1=NO[C@@H](NC(=O)c2ccc(C3=NO[C@@](c4cc(Cl)c(F)c(Cl)c4)(C(F)(F)F)C3)cc2C)C1 (single isomer, unassigned) [Compound A151]
≥ 80%: percent control (mortality, anti-feedant effect or growth inhibition) at 200 ppm (Spodoptera littoralis) | percent effect (mortality or growth inhibition) at 200 ppm (Plutella xylostella) | percent effect (mortality or growth inhibition) at 200 ppm (Diabrotica Balteata) | mortality at 200 ppm (Thrips tabaci) | mortality at 200 ppm (Tetranychus urticae)

CCOC1=NO[C@@H](NC(=O)c2ccc(C3=NO[C@@](c4cc(Cl)cc(Cl)c4)(C(F)(F)F)C3)cc2C)C1 (single isomer, unassigned) [Compound A159]
≥ 80%: percent control (mortality, anti-feedant effect or growth inhibition) at 200 ppm (Spodoptera littoralis) | percent effect (mortality or growth inhibition) at 200 ppm (Plutella xylostella) | percent effect (mortality or growth inhibition) at 200 ppm (Diabrotica Balteata) | mortality at 200 ppm (Thrips tabaci) | mortality at 200 ppm (Tetranychus urticae)

C/C(N)=N/OC1=NOC(NC(=O)c2ccc(C3=NO[C@@](c4cc(Cl)c(F)c(Cl)c4)(C(F)(F)F)C3)cc2C)C1 (stereo partly drawn) [Compound A143, N-[3-[(Z)-1-aminoethylideneamino]oxy-4,5-dihydroisoxazol-5-yl]-4-[(5S)-5-(3,5-dichloro-4-fluoro-phenyl)-5-(trifluoromethyl)-4H-isoxazol-3-yl]-2-methyl-benzamide]
≥ 80%: percent control (mortality, anti-feedant effect or growth inhibition) at 200 ppm (Spodoptera littoralis) | percent effect (mortality or growth inhibition) at 200 ppm (Plutella xylostella) | percent effect (mortality or growth inhibition) at 200 ppm (Diabrotica Balteata) | mortality at 200 ppm (Thrips tabaci) | mortality at 200 ppm (Tetranychus urticae)

CSC1=NOC(NC(=O)c2ccc(C3=NO[C@@](c4cc(Cl)c(SC)c(Cl)c4)(C(F)(F)F)C3)cc2C)C1 (stereo partly drawn) [Compound A020, 4-[(5S)-5-(3,5-dichloro-4-methylsulfanyl-phenyl)-5-(trifluoromethyl)-4H-isoxazol-3-yl]-2-methyl-N-(3-methylsulfanyl-4,5-dihydroisoxazol-5-yl)benzamide]
≥ 80%: percent control (mortality, anti-feedant effect or growth inhibition) at 200 ppm (Spodoptera littoralis) | percent effect (mortality or growth inhibition) at 200 ppm (Plutella xylostella) | percent effect (mortality or growth inhibition) at 200 ppm (Diabrotica Balteata) | mortality at 200 ppm (Thrips tabaci) | mortality at 200 ppm (Tetranychus urticae)

Cc1cc(C2=NO[C@@](c3cc(Cl)c(F)c(Cl)c3)(C(F)(F)F)C2)ccc1C(=O)NC1CC(/C=N/O)=NO1 (some centres unmarked) [Compound A118]
≥ 80%: percent control (mortality, anti-feedant effect or growth inhibition) at 200 ppm (Spodoptera littoralis) | percent effect (mortality or growth inhibition) at 200 ppm (Plutella xylostella) | percent effect (mortality or growth inhibition) at 200 ppm (Diabrotica Balteata) | mortality at 200 ppm (Thrips tabaci) | mortality at 200 ppm (Tetranychus urticae)

Cc1cc(C2=NO[C@@](c3cc(Cl)c(F)c(Cl)c3)(C(F)(F)F)C2)ccc1C(=O)N[C@H]1CC(Br)=NO1 (single isomer, unassigned) [Compound A146]
≥ 80%: percent control (mortality, anti-feedant effect or growth inhibition) at 200 ppm (Spodoptera littoralis) | percent effect (mortality or growth inhibition) at 200 ppm (Plutella xylostella) | percent effect (mortality or growth inhibition) at 200 ppm (Diabrotica Balteata) | mortality at 200 ppm (Thrips tabaci) | mortality at 200 ppm (Tetranychus urticae)

COC1=NO[C@@H](N(C(=O)OC(C)(C)C)C(=O)c2ccc(C3=NO[C@@](c4cc(Cl)c(Cl)c(Cl)c4)(C(F)(F)F)C3)cc2C)C1 (single isomer, unassigned) [Compound A153]
≥ 80%: percent control (mortality, anti-feedant effect or growth inhibition) at 200 ppm (Spodoptera littoralis) | percent effect (mortality or growth inhibition) at 200 ppm (Plutella xylostella) | percent effect (mortality or growth inhibition) at 200 ppm (Diabrotica Balteata) | mortality at 200 ppm (Thrips tabaci) | mortality at 200 ppm (Tetranychus urticae)

CCOC(=O)C1=NOC(N(C=O)C(=O)c2ccc(C3=NO[C@@](c4cc(Cl)c(F)c(Cl)c4)(C(F)(F)F)C3)cc2C)C1 (stereo partly drawn) [Compound A006, ethyl 5-[[4-[(5S)-5-(3,5-dichloro-4-fluoro-phenyl)-5-(trifluoromethyl)-4H-isoxazol-3-yl]-2-methyl-benzoyl]-formyl-amino]-4,5-dihydroisoxazole-3-carboxylate]
≥ 80%: percent control (mortality, anti-feedant effect or growth inhibition) at 200 ppm (Spodoptera littoralis) | percent effect (mortality or growth inhibition) at 200 ppm (Plutella xylostella) | percent effect (mortality or growth inhibition) at 200 ppm (Diabrotica Balteata) | mortality at 200 ppm (Thrips tabaci)

Cc1cc(C2=NO[C@@](c3cc(Cl)c(F)c(Cl)c3)(C(F)(F)F)C2)ccc1C(=O)N(C(=O)OC(C)(C)C)C1CC(COC2CCCCO2)=NO1 (some centres unmarked) [Compound A068]
≥ 80%: percent control (mortality, anti-feedant effect or growth inhibition) at 200 ppm (Spodoptera littoralis; [1]) | percent effect (mortality or growth inhibition) at 200 ppm (Plutella xylostella; [2]) | percent effect (mortality or growth inhibition) at 200 ppm (Diabrotica Balteata; [3]) | mortality at 200 ppm (Thrips tabaci; [4]) | mortality at 200 ppm (Tetranychus urticae; [5])

COCC1=NOC(N(C(=O)OC(C)(C)C)C(=O)c2ccc(C3=NO[C@@](c4cc(Cl)c(F)c(Cl)c4)(C(F)(F)F)C3)cc2C)C1 (some centres unmarked) [Compound A088]
≥ 80%: percent control (mortality, anti-feedant effect or growth inhibition) at 200 ppm (Spodoptera littoralis) | percent effect (mortality or growth inhibition) at 200 ppm (Plutella xylostella) | percent effect (mortality or growth inhibition) at 200 ppm (Diabrotica Balteata) | mortality at 200 ppm (Thrips tabaci) | mortality at 200 ppm (Tetranychus urticae)

Cc1cc(C2=NO[C@@](c3cc(Cl)cc(Cl)c3)(C(F)(F)F)C2)ccc1C(=O)N[C@H]1CC(OCC(F)(F)F)=NO1 (single isomer, unassigned) [Compound A157]
≥ 80%: percent control (mortality, anti-feedant effect or growth inhibition) at 200 ppm (Spodoptera littoralis) | percent effect (mortality or growth inhibition) at 200 ppm (Plutella xylostella) | percent effect (mortality or growth inhibition) at 200 ppm (Diabrotica Balteata) | mortality at 200 ppm (Thrips tabaci) | mortality at 200 ppm (Tetranychus urticae)

Cc1cc(C2=NO[C@@](c3cc(Cl)c(F)c(Cl)c3)(C(F)(F)F)C2)ccc1C(=O)N(C(=O)OC(C)(C)C)C1CC(Cl)=NO1 (stereo partly drawn) [Compound A067, tert-butyl N-(3-chloro-4,5-dihydroisoxazol-5-yl)-N-[4-[(5S)-5-(3,5-dichloro-4-fluoro-phenyl)-5-(trifluoromethyl)-4H-isoxazol-3-yl]-2-methyl-benzoyl]carbamate]
≥ 80%: percent control (mortality, anti-feedant effect or growth inhibition) at 200 ppm (Spodoptera littoralis) | percent effect (mortality or growth inhibition) at 200 ppm (Plutella xylostella) | percent effect (mortality or growth inhibition) at 200 ppm (Diabrotica Balteata) | mortality at 200 ppm (Thrips tabaci) | mortality at 200 ppm (Tetranychus urticae)

CCOC(=O)C1=NOC(NC(=O)c2ccc(C3=NO[C@@](c4cc(Cl)c(F)c(Cl)c4)(C(F)(F)F)C3)cc2C)C1 (stereo partly drawn) [Compound A007, ethyl 5-[[4-[(5S)-5-(3,5-dichloro-4-fluoro-phenyl)-5-(trifluoromethyl)-4H-isoxazol-3-yl]-2-methyl-benzoyl]amino]-4,5-dihydroisoxazole-3-carboxylate]
≥ 80%: percent control (mortality, anti-feedant effect or growth inhibition) at 200 ppm (Spodoptera littoralis) | percent effect (mortality or growth inhibition) at 200 ppm (Plutella xylostella) | percent effect (mortality or growth inhibition) at 200 ppm (Diabrotica Balteata) | mortality at 200 ppm (Thrips tabaci) | mortality at 200 ppm (Tetranychus urticae)

Cc1cc(C2=NO[C@@](c3cc(Cl)c(F)c(Cl)c3)(C(F)(F)F)C2)ccc1C(=O)NC1CC(C(=O)O)=NO1 (some centres unmarked) [Compound A117]
≥ 80%: percent control (mortality, anti-feedant effect or growth inhibition) at 200 ppm (Spodoptera littoralis) | percent effect (mortality or growth inhibition) at 200 ppm (Plutella xylostella) | percent effect (mortality or growth inhibition) at 200 ppm (Diabrotica Balteata) | mortality at 200 ppm (Thrips tabaci) | mortality at 200 ppm (Tetranychus urticae)
